From patent publication US20240407363A1 (priority 2021, published 2024)

Tests used:
X. perforans GEV-485 = assay: In vitro MIC and MBC determination in nutrient broth / on NA plates; type: cell-based; conditions: three trials
Description: X. perforans strain GEV-485, a copper-resistant strain, was used in this study to evaluate the antibacterial activity of Hx. Working cultures of GEV-485 were retrieved from −80° C. storage vials containing bacterial suspensions in 30% glycerol (v/v). Bacterial cells were taken from the storage, streaked on nutrient agar (NA; Difco™ Sparks, MD) plates and incubated for 48 h at 28° C. and single colonies were picked and streaked on NA plates to ensure bacterial purity for further cultures. NA amended with copper (II) sulfate pentahydrate (CuSO4·5H2O) (Fisher Scientific-Hampton, NH) at 20 ppm, was used as copper tolerance selective agent. To prepare the bacterial inoculum, a single bacterial colony was streaked on NA and incubated for 24 h at 28° C. From those plates, loops of bacterial cells were collected and resuspended in SDW amended with 0.01 M MgSO4. The bacterial concentration was adjusted to ˜5.0×10^8 colony-forming units (CFU)/mL based on an optical density (OD) of 0.3 at 600 nm. The in vitro studies were conducted to determine the minimum inhibitory concentration (MIC), minimum bactericidal concentration (MBC), and the antibacterial activity at different time points.
To determine MIC of Hx against X. perforans GEV-485, individual 96-well plates containing 100 μL of nutrient broth (NB) with varied copper and Hx concentrations were inoculated with 100 μL of the GEV-485 suspension at the concentration of 1.0×10^8 CFU/mL. The final chemical concentrations on the wells were 16, 32, 64, 128, 256, 512, 1024, 2048, 4096 and 8192 mg/L. Three wells with 100 µL of NB and 100 μL of the bacterial suspension were the controls. Solutions in all wells were thoroughly mixed by pipetting. The plate was, then, covered with a lid and incubated under stationary conditions at 28° C. for 24 h. The value of MIC for Hx and copper was determined as the minimum concentration (mg/L), at which the bacterial growth was inhibited (the solution was clear), among all tested concentrations of each chemical. After MIC was determined, an aliquot of 20 μL of the solution from the wells that gave a clear solution was plated on NA. […] The MBC was determined as the minimum concentration, at which >99.9% of the initial bacterial populations were killed and no visible growth of the bacterium was observed on the NA plates among all tested concentrations of antimicrobial agents. The experiment was repeated two more times, with three replications for each treatment.

[1] = tested on: X. perforans (a copper-resistant strain QL); assay: Greenhouse experiment, bacterial spot of tomato (cv. FL 47), compounds sprayed approx. 2 h before inoculation; type: in vivo; conditions: for BS1 average disease severity of bacterial spot on two mostly infected leaves / WHOLE1 disease severity over the whole plant: 10 d after inoculation; for BS2 average disease severity of bacterial spot on two mostly infected leaves / WHOLE2 disease severity over the whole plant: 12 d after inoculation; for BS3 average disease severity of bacterial spot on two mostly infected leaves / WHOLE3 disease severity over the whole plant: 14 d after inoculation; for AUDPC_BS: two mostly infected leaves, 10, 12, 14 days after inoculation; for AUDPC_WHOLE: whole plant, 10, 12, 14 days after inoculation
Description: Tomato (cv. FL 47) was seeded in the greenhouse (the highest temperature was set at 82° F.) and the seedlings with two fully expanded leaves (about 3 weeks after seeding) were transplanted to soilless mix in 6-inch pots. One week after transplanting, treatments with the compounds at the test concentrations were sprayed onto plants until runoff approx. 2 h before inoculation with X. perforans. Untreated plants were used as the control (CK). There were five plants in each treatment and one plant served as one replicate. All plants were inoculated by spraying a bacterial suspension of X. perforans (a copper-resistant strain QL) at 1×10^8 CFU/ml until runoff. Inoculated plants were incubated in a moist chamber overnight (approx. 18 h) to ensure and promote infection by X. perforans. Then the inoculated plants were taken out and placed randomly on a bench inside the greenhouse for disease development. Plants were sprayed with mist periodically to stimulate disease development. When lesions on the leaves were apparent, the percentage of leaf area covered by the lesions, either for the two mostly infected leaves or the whole plant, was rated and recorded for each treatment. Disease rating was conducted at least two times. The area under the disease progress curve (AUDPC) was calculated for each treatment to reflect the disease development over a period if disease rating was carried out three times or more.

Xanthomonas perforans = assay: Field trials on piperidine and pyrrolidine, bacterial spot of tomato, foliar spray; type: in vivo; conditions: for AUDPC / BS last rating of bacterial spot severity / YIELD: foliar spray at the concentration given with each treatment; for increase of marketable tomato fruit yield compared to the untreated control (CK) / bacterial spot disease severity and AUDPC compared to the untreated control (CK): pyrrolidine at 128 mg/ml; for bacterial spot disease severity and AUDPC compared to the untreated control (CK): foliar sprays, both independent trials, 2021-2022
Description: Tomato seedlings were transplanted in fall for the first trial (trial 1) and spring for the second trial (trial 2). Treatments were started about two weeks after transplanting following weekly applications for a total of eight weeks. Tomato plants were inoculated with the pathogen Xanthomonas perforans (1-5×10^6 cfu/ml) the following day in the afternoon after the third treatment. Disease severity was rated weekly when bacterial spot symptoms were observed, and area under the disease progress curve (AUDPC) was calculated. Tomato fruit were harvested two to three times for each trial and graded according to the USDA standard. Total fruit yield in each treatment and the untreated control (CK) was subjected to statistical analysis using SAS (version 9.2, SAS Institute Inc., Cary, NC, USA). Disease severity of last rating and AUDPC from each trial were analyzed and presented.
All treatments were applied through a foliar spray at specified concentrations. Piperidine and pyrrolidine were evaluated in two independent trials. Tomato cultivar was ‘Red bounty’ in trial 1, and ‘Varsity’ in trial 2.

[2] = first value named of two independent trials, piperidine at 64 mg/ml
[3] = second value named of two independent trials, piperidine at 64 mg/ml

| Compound | BS1 average disease severity of bacterial spot on two mostly infected leaves ([1]; 64 mg/L = 64 ppm) | WHOLE1 disease severity over the whole plant ([1]; 64 mg/L = 64 ppm) | BS2 average disease severity of bacterial spot on two mostly infected leaves ([1]; 64 mg/L = 64 ppm) | WHOLE2 disease severity over the whole plant ([1]; 64 mg/L = 64 ppm) | BS3 average disease severity of bacterial spot on two mostly infected leaves ([1]; 64 mg/L = 64 ppm) | WHOLE3 disease severity over the whole plant ([1]; 64 mg/L = 64 ppm) | AUDPC_BS ([1]; 64 mg/L = 64 ppm) | AUDPC_WHOLE ([1]; 64 mg/L = 64 ppm) | AUDPC (Xanthomonas perforans; Trial 1, cv. Red bounty) | BS last rating of bacterial spot severity (Xanthomonas perforans; Trial 1, cv. Red bounty) | YIELD (Xanthomonas perforans; Trial 1, cv. Red bounty) | AUDPC (Xanthomonas perforans; Trial 2, cv. Varsity) | BS last rating of bacterial spot severity (Xanthomonas perforans; Trial 2, cv. Varsity) | YIELD (Xanthomonas perforans; Trial 2, cv. Varsity) | increase of marketable tomato fruit yield compared to the untreated control (CK) (Xanthomonas perforans; [2]) | bacterial spot disease severity and AUDPC compared to the untreated control (CK) (Xanthomonas perforans; piperidine at 64 mg/ml) | increase of marketable tomato fruit yield compared to the untreated control (CK) (Xanthomonas perforans; [3]) | other results |
| --- | --- | --- | --- | --- | --- | --- | --- | --- | --- | --- | --- | --- | --- | --- | --- | --- | --- | --- |
| O=S(=O)([O-])[O-].[Cu+2] [Copper (CuSO4), CuSO4, reference compound] | – | – | – | – | – | – | – | – | – | – | – | – | – | – | – | – | – | MIC (X. perforans GEV-485; 28° C. for 24 h, copper-resistant strain): 1024 µg/mL; MBC (X. perforans GEV-485; >99.9% of initial bacterial populations killed, no visible growth on NA): 2048 µg/mL |
| C1CCNCC1 [Piperidine, piperidine] | 30.0 a | 10.0 ab | 36.0 a | 28.0 a | 54.0 a | 32.0 a | 546.0 a | 343.0 a | 495.9 bc | 34.6 b % | 3.88 a kg/plant | 394.9 b | 23.8 b % | 4.38 a kg/plant | 15.5% | significantly (P<0.05) reduced bacterial spot disease severity at the last rating and the overall disease progress | 17.6% | BS1 average disease severity of bacterial spot on two mostly infected leaves ([1]; 32 mg/L = 32 ppm): 24.5 a; WHOLE1 disease severity over the whole plant ([1]; 32 mg/L = 32 ppm): 14.2 a; BS2 average disease severity of bacterial spot on two mostly infected leaves ([1]; 32 mg/L = 32 ppm): 33.0 a; WHOLE2 disease severity over the whole plant ([1]; 32 mg/L = 32 ppm): 26.0 ab; BS3 average disease severity of bacterial spot on two mostly infected leaves ([1]; 32 mg/L = 32 ppm): 35.0 b; WHOLE3 disease severity over the whole plant ([1]; 32 mg/L = 32 ppm): 26.0 ab; bacterial spot disease compared to CK ([1]; at 32 and 64 mg/L alone): failed to reduce the disease; AUDPC_BS ([1]; 32 mg/L = 32 ppm): 439.3 b; AUDPC_WHOLE ([1]; 32 mg/L = 32 ppm): 322.7 ab; effect on disease reduction compared to ManKocide at the label rate of 2.1 mg/ml (Xanthomonas perforans; piperidine at 64 mg/ml, foliar spray): even better than ManKocide® |
| pyrrolidine | 14.0 bc | 5.1 bc | 15.2 bc | 7.5 cde | 17.5 c | 5.3 c | 219.6 c | 88.7 days | 466.1 c | 31.7 b % | 3.95 a kg/plant | 401.8 b | 23.1 b % | 3.99 a kg/plant | 15.9% | significantly (P<0.05) reduced bacterial spot disease severity at the last rating and the overall disease progress | 5.6% | BS1 average disease severity of bacterial spot on two mostly infected leaves ([1]; 128 mg/L = 128 ppm): 7.5 c; WHOLE1 disease severity over the whole plant ([1]; 128 mg/L = 128 ppm): 1.5 c; BS2 average disease severity of bacterial spot on two mostly infected leaves ([1]; 128 mg/L = 128 ppm): 9.0 c; WHOLE2 disease severity over the whole plant ([1]; 128 mg/L = 128 ppm): 1.8 de; BS3 average disease severity of bacterial spot on two mostly infected leaves ([1]; 128 mg/L = 128 ppm): 11.0 c; WHOLE3 disease severity over the whole plant ([1]; 128 mg/L = 128 ppm): 3.8 c; bacterial spot disease compared to the untreated control (CK) ([1]; at 64 and 128 mg/L each): significantly (P<0.05) reduced bacterial spot disease; AUDPC_BS ([1]; 128 mg/L = 128 ppm): 127.8 cd; AUDPC_WHOLE ([1]; 128 mg/L = 128 ppm): 31.2 days |
